Assay results published in the NIST ThermoML archive (doi:10.1021/je060271a).

Conditions: 343.16 K, Liquid, Vibrating tube method

CCCCCC(=O)OCC(COC(=O)CCCCC)(COC(=O)CCCCC)COC(=O)CCCCC [pentaerythritol tetrahexanoate]
Conditions | mass density [kg/m3]
27885 kPa | 976.9
27922 kPa | 976.9
27953 kPa | 976.9
27990 kPa | 976.9
28022 kPa | 977
28053 kPa | 977
28081 kPa | 976.9
28111 kPa | 977
28135 kPa | 977
28160 kPa | 977.1
28189 kPa | 977.2
28213 kPa | 977
28238 kPa | 977.1
28267 kPa | 977
28292 kPa | 977.1
28613 kPa | 977.3
28638 kPa | 977.3
28664 kPa | 977.3
28694 kPa | 977.4
28719 kPa | 977.5
28745 kPa | 977.4
28777 kPa | 977.5
28799 kPa | 977.4
28830 kPa | 977.4
28855 kPa | 977.4
28886 kPa | 977.6
28912 kPa | 977.6
28938 kPa | 977.6
28969 kPa | 977.3
28995 kPa | 977.6
29021 kPa | 977.5
29048 kPa | 977.7
29360 kPa | 977.8
29386 kPa | 977.8
29419 kPa | 977.8
29533 kPa | 977.9
29560 kPa | 977.9
29588 kPa | 978
29620 kPa | 977.8
29648 kPa | 977.9
29680 kPa | 978
29708 kPa | 978
29735 kPa | 978
29824 kPa | 978
30097 kPa | 978.2
30127 kPa | 978.2
30157 kPa | 978.2
30193 kPa | 978.4
30518 kPa | 978.6
30540 kPa | 978.4
30566 kPa | 978.7
30588 kPa | 978.5
30610 kPa | 978.5
30637 kPa | 978.6
30659 kPa | 978.6
30682 kPa | 978.8
30704 kPa | 978.7
30731 kPa | 978.6
30753 kPa | 978.7
30776 kPa | 978.7
30798 kPa | 978.7
30825 kPa | 978.7
30848 kPa | 978.5
30871 kPa | 978.7
30894 kPa | 979
30917 kPa | 978.8
30944 kPa | 978.8
30966 kPa | 978.8
30993 kPa | 978.8
31016 kPa | 978.8
31038 kPa | 978.8
31065 kPa | 978.9
31088 kPa | 978.8
31111 kPa | 978.8
31134 kPa | 978.8
31161 kPa | 978.9
31185 kPa | 979
31208 kPa | 978.9
31236 kPa | 978.9
31259 kPa | 979
31282 kPa | 979
31304 kPa | 979.1
31332 kPa | 979
31355 kPa | 979
31382 kPa | 979.1
31405 kPa | 979
31429 kPa | 979.1
31480 kPa | 979.2
31504 kPa | 979.1
31527 kPa | 979.2
31555 kPa | 979.3
31578 kPa | 979.3
31606 kPa | 979.3
31630 kPa | 979.2
31654 kPa | 979.2
31682 kPa | 979.3
31706 kPa | 979.3
31729 kPa | 979.3
31758 kPa | 979.3
31782 kPa | 979.3
31806 kPa | 979.3
31830 kPa | 979.3
31859 kPa | 979.3
31883 kPa | 979.4
31912 kPa | 979.4
31936 kPa | 979.3
31960 kPa | 979.3
31984 kPa | 979.4
32013 kPa | 979.5
32037 kPa | 979.6
32061 kPa | 979.4
32090 kPa | 979.4
32114 kPa | 979.5
32144 kPa | 979.6
32169 kPa | 979.6
32193 kPa | 979.4
32217 kPa | 979.6
32247 kPa | 979.8
32272 kPa | 979.6
32296 kPa | 979.7
32326 kPa | 979.6
32351 kPa | 979.7
32381 kPa | 979.7
32406 kPa | 979.6
32431 kPa | 979.6
32456 kPa | 979.8
32486 kPa | 979.8
32511 kPa | 979.7
32536 kPa | 979.7
32562 kPa | 979.8
32592 kPa | 979.9
32617 kPa | 979.8
32647 kPa | 979.9
32672 kPa | 979.8
32698 kPa | 979.8
32724 kPa | 980
32755 kPa | 979.9
32780 kPa | 980
32806 kPa | 979.9
32837 kPa | 979.9
32863 kPa | 980
32889 kPa | 980
32920 kPa | 979.8
32945 kPa | 980
32971 kPa | 980
